Experimental data from US10906929B2, “Phosphoramidate nucleoside derivatives as anticancer agents” (NuCana plc, priority 2016, dated 2021).

Legend:
HL-60 = test: In vitro cytotoxicity, MTS assay; type: cell-based; conditions: Homo sapiens, 72 h, read-out: Inhibitory concentration (IC50) HL-60
Procedure: (§1) Cladribine phosphoramidate derivatives were evaluated against six leukaemic cell lines (KG1, U937, K562, NB4R2, NB4 and HL-60) in vitro. Inhibitory concentration (IC50) at which 50% of the cells were no longer viable (calculated using MTS assay) was determined. Cells were treated with Cladribine and its 3′-phosphoramidate derivatives at concentrations between 100 μM and 0.02 μM by serial dilutions and incubated for 72 h at 37° C., 5% CO2 in a final volume of 90 μL. Twenty microliters of MTS reagent (Promega UK Ltd, Southampton, Hants) was added to the tumour cell cultures and reaction incubated for a further 4 h at 37° C., 5% CO2. The absorbance of the reaction after this time was read by spectrophotometry at 490 nm and the percentage of viable cells calculated relative to untreated control cells in the same assay.

K562 = test: In vitro cytotoxicity, MTS assay; type: cell-based; conditions: Homo sapiens, 72 h, read-out: Inhibitory concentration (IC50) K562
Procedure: as §1

KG1 = test: In vitro cytotoxicity, MTS assay; type: cell-based; conditions: Homo sapiens, KG-1, 72 h, read-out: Inhibitory concentration (IC50) KG1
Procedure: as §1

NB4R2 = test: In vitro cytotoxicity, MTS assay; type: cell-based; conditions: 72 h, read-out: Inhibitory concentration (IC50) NB4R2
Procedure: as §1

NB4 = test: In vitro cytotoxicity, MTS assay; type: cell-based; conditions: Homo sapiens, NB-4, 72 h, read-out: Inhibitory concentration (IC50) NB4
Procedure: as §1

U937 = test: In vitro cytotoxicity, MTS assay; type: cell-based; conditions: Homo sapiens, U-937, 72 h, read-out: Inhibitory concentration (IC50) U937
Procedure: as §1

KG1a cell line = test: Annexin V/propidium iodide apoptosis assay; type: cell-based; conditions: 72 h, dose required to kill 50% of the cells
Procedure: (§2) Cells of the KG1a cell line were maintained in RPMI medium (Invitrogen, Paisley, UK) supplemented with 100 units/ml penicillin, 100 μg/ml streptomycin and 20% foetal calf serum. Cells were subsequently aliquoted (10^5 cells/100 μl) into 96-well plates and were incubated at 37° C. in a humidified 5% carbon dioxide atmosphere for 72 h in the presence of nucleoside analogues and their respective phosphoramidates at concentrations that were experimentally determined for each series of compounds. In addition, control cultures were carried out to which no drug was added. Cells were subsequently harvested by centrifugation and were analyzed by flow cytometry using the Annexin V assay.
Measurement of in vitro apoptosis. Cultured cells were harvested by centrifugation and then resuspended in 195 μl of calcium-rich buffer. Subsequently, 5 μl of Annexin V (Caltag Medsystems, Botolph Claydon, UK) was added to the cell suspension and cells were incubated in the dark for 10 mins prior to washing. Cells were finally resuspended in 190 μl of calcium-rich buffer together with 10 μl of propidium iodide. Apoptosis was assessed by dual-colour immunofluorescent flow cytometry as described previously. Subsequently LD50 values (the dose required to kill 50% of the cells in a culture) were calculated for each nucleoside analogue and phosphoramidate.
The data obtained in these experiments were evaluated using one way ANOVA. All data was confirmed as Gaussian or a Gaussian approximation using the omnibus K2 test. LD50 values were calculated from the non-linear regression and line of best-fit analysis of the sigmoidal dose-response curves. All statistical analyses were performed using Graphpad Prism 6.0 software (Graphpad Software Inc., San Diego, Calif.).

[1] = system: leukaemic stem cell compartment (Lin-/CD34+/CD38-/CD123+) within the KG1a cell line; test: Immunophenotypic identification of the leukaemic stem cell compartment; type: cell-based; conditions: for Stem cell %: 72 h, LSC phenotype as percentage of all viable cells left, Control: 4%
Procedure: A further comparative analysis of the toxicity of compounds in the KG1a cell line over an extended dose range was carried out, and the relative effect assessed of the compounds on the leukaemic stem cell compartment within the KG1a cell line, across the entire dose range. Thus, experimental tests were performed on certain compounds of the present invention to assess their ability to target cancer stem cells in a leukaemic cell line. The acute myeloid leukaemia (AML) cell line, KG1a, was employed to assess the relative effect of compounds on the stem cell compartment. The KG1a cell line was selected because it manifests a minor stem cell-like compartment with a distinct immunophenotype (Lin^−/CD34^+/CD38^−/CD123^+).
as §2
KG1a cells were cultured for 72 h in the presence of a wide range of concentrations of each compound assayed. Cells were then harvested and labelled with a cocktail of anti-lineage antibodies (PE-cy7), anti-CD34 (FITC), anti-CD38 (PE) and anti-CD123 (PERCP cy5). The sub-population expressing a leukaemic stem cell (LSC) phenotype were subsequently identified and were expressed as a percentage of all viable cells left in the culture. […]

MCF7 = test: Cytostatic activity, cell counting (Coulter counter); type: cell-based; conditions: Homo sapiens, MCF7, 72 h, read-out: IC50 MCF7
Source text: (§3) Tumor cell cultures were infected with M. hyorhinis (ATCC 17981) and after two or more passages (to avoid bias by the initial inoculum) successful infection was confirmed using the MycoAlert™ mycoplasma detection kit (Lonza, Basel, Switzerland). Although this assay is only semi-quantitative, a maximal infection was observed 3 to 4 days after subcultivation of the mycoplasma-exposed cells. Chronically infected tumor cell lines are further referred to as Cell line.Hyor. All tumor cell cultures were maintained in Dulbecco's modified Eagle's medium (DMEM) (Invitrogen) supplemented with 10% fetal bovine serum (Biochrom AG, Berlin, Germany), 10 mm HEPES, and 1 mm sodium pyruvate (Invitrogen). Cells were grown at 37° C. in a humidified incubator with a gas phase containing 5% CO2.
(§4) The cytostatic activity of the test compounds was examined in mycoplasma-infected and uninfected cancer cell lines. When assaying the effect of M. hyorhinis infection, monolayer MCF7 and MCF7.Hyor cells were seeded in 48-well microtiter plates (Nunc™, Roskilde, Denmark) at 10,000 cells/well (Corning Inc., Corning, N.Y.) […]. After 24 h, the cells were exposed to different concentrations of test compound and allowed to proliferate for 72 h (to ensure sufficient cell proliferation and mycoplasma growth) after which the cells were trypsinized and counted using a Coulter counter (Analis, Suarlée, Belgium). Suspension cells (L1210, L1210.Hyor, FM3A, and FM3A.Hyor) were seeded in 96-well microtiter plates (Nunc) at 60,000 cells/well in the presence of different concentrations of test compound. The cells were allowed to proliferate for 48 h and then counted using a Coulter counter. The 50% inhibitory concentration (IC50) was defined as the compound concentration required to reduce cell proliferation by 50%.

[2] = system: MCF7 cells infected with Mycoplasma hyorhnis (HYOR); test: Cytostatic activity in mycoplasma-infected cells; type: cell-based, human; conditions: for IC50: Homo sapiens, MCF7, 72 h, read-out: IC50 MCF7/HYOR; for Loss of potency: MCF7/HYOR versus MCF7
Source text: as §3, §4

[3] = system: HEL92.1.7 Erythroleukaemia; test: In vitro viability assay, CellTiterGlo; type: cell-based
Procedure: (§5) In vitro viability assay was performed to assess the effects of compounds on cell viability in selected cell lines over 72 h using the CellTiterGlo (CTG, Promega-G7573) assay. The tests were performed in duplicates with treatment of compounds at 9 points, 3.16 folds titration in 96 well plates over ˜72 h. The compound starting concentrations were […]. Cell viability assay using CellTiterGlo in 96-well plate were performed. Compounds were dissolved to 40 mM with thawed 100% DMSO. Compounds were serially diluted at 3.16-fold in thawed DMSO, and warmed to 37° C. before being dissolved in media (2 μl+200 μl). After compounds were dissolved in media, media containing compounds were warmed to 37° C. in incubator and then compounds in media were added to cell plates (50 μl+50 μl) in duplicates. The compounds' final concentrations were from 198 μM to 19.9 nM. Solubility of all compounds was checked and recorded again, then the plates were transferred to CO2 tissue culture incubator immediately and incubated for 3 days. DMSO final concentration is 0.5%.

[4] = system: HL-60 Promyelocytic leukaemia; test: In vitro viability assay, CellTiterGlo; type: cell-based
Procedure: as §5

[5] = system: KG-1 Acute myelogenous leukaemia; test: In vitro viability assay, CellTiterGlo; type: cell-based
Procedure: as §5

[6] = system: RL Non-Hodgkin's lymphoma; test: In vitro viability assay, CellTiterGlo; type: cell-based; conditions: 72 h
Procedure: as §5

[7] = system: Z-138 Mantle cell lymphoma; test: In vitro viability assay, CellTiterGlo; type: cell-based
Procedure: as §5

[8] = system: MCF-7 Mammary epithelial adenocarcinoma; test: In vitro viability assay, CellTiterGlo; type: cell-based, human
Procedure: as §5

L1210 = test: Cytostatic activity, cell counting (Coulter counter); type: cell-based; conditions: Mus musculus, L1210, 48 h, read-out: IC50 L1210
Source text: as §3, §4

[9] = system: L1210 cells infected with Mycoplasma hyorhinis (HYOR); test: Cytostatic activity in mycoplasma-infected cells; type: cell-based, mouse
Source text: as §3, §4

Compound	IC50 (HL-60) [nM]	IC50 (K562) [nM]	IC50 (KG1) [nM]	IC50 (NB4R2) [nM]	IC50 (NB4) [nM]	IC50 (U937) [nM]	LD50 (KG1a cell line) [μm]	stem cell selectivity [1]	Stem cell % [1] [%]	IC50 (MCF7) [nM]	IC50 [2] [nM]	Loss of potency [2]	further results
C[C@H](NP(=O)(Oc1ccccc1)OC1C[C@H](n2cnc3c(N)nc(Cl)nc32)O[C@@H]1CO)C(=O)OCc1ccccc1 (some centres unmarked) [Compound 19]	100	> 10000	380	110	240	30	0.83	exhibited stem cell selectivity	3.1	5200	26000	5-fold	–
C[C@H](NP(=O)(Oc1cccc2ccccc12)OC1C[C@H](n2cnc3c(N)nc(Cl)nc32)O[C@@H]1CO)C(=O)OCC(C)(C)C (stereo partly drawn) [Compound 6, 2-Chloro-2′-deoxyadenosine-3′-[1-naphthyl-(2,2-dimethylpropoxy-L-alaninyl)]phosphate]	300	–	–	–	1000	–	–	–	–	–	–	–	Top Inhibition (%) ([3]; HEL92.1.7, CellTiterGlo, 72 h): 98.6%; EC50 ([3]; Homo sapiens, HEL 92.1.7, 72 h, read-out: EC50 (μM) Ab): 0.07 µM; Top Inhibition (%) ([4]; HL-60, CellTiterGlo, 72 h): 96%; EC50 ([4]; Homo sapiens, HL-60, 72 h, read-out: EC50 (μM) Ab): 0.23 µM; EC50 ([5]; Homo sapiens, KG-1, 72 h, read-out: EC50 (μM) Ab): 1.2 µM; Top Inhibition (%) ([5]; KG-1, CellTiterGlo, 72 h): 98.6%; Top Inhibition (%) ([6]; CellTiterGlo): 98.6%; EC50 ([6]; Homo sapiens, read-out: EC50 (μM) Ab): 0.29 µM; EC50 ([7]; Homo sapiens, Z-138, 72 h, read-out: EC50 (μM) Ab): 1.5 µM; Top Inhibition (%) ([7]; Z-138, CellTiterGlo, 72 h): 101%; EC50 ([8]; Homo sapiens, MCF7, 72 h, read-out: EC50 (μM) Ab): 6.8 µM; Top Inhibition (%) ([8]; MCF-7, CellTiterGlo, 72 h): 102%; IC50 (L1210): 1000 nM; Loss of potency ([9]; L1210/HYOR versus L1210): 4-fold; IC50 ([9]; Mus musculus, L1210, 48 h, read-out: IC50 L1210/HYOR): 4000 nM
C[C@H](NP(=O)(Oc1cccc2ccccc12)OC1C[C@H](n2cnc3c(N)nc(Cl)nc32)O[C@@H]1CO)C(=O)OCc1ccccc1 (some centres unmarked) [Compound 18]	390	5140	310	1290	70	10	0.27	exhibited stem cell selectivity	4	–	–	–	targeting of LSCs when compared to cladribine [1]: showed preferential targeting of LSCs
C[C@H](NP(=O)(OC[C@H]1O[C@@H](n2cnc3c(N)nc(Cl)nc32)CC1O)Oc1ccccc1)C(=O)OCc1ccccc1 (some centres unmarked) [Y, reference compound]	1750	8050	670	630	230	80	1.7	–	2	2100	33000	16-fold	–
